Experiments:
[1] = molecular target: T1, PDGFRβ (Homo sapiens, UniProt P09619); experiment: In vitro phospho-Tyr751 PDGFRβ ELISA assay (Test (b)); assay type: cell-based; details: MG63 osteosarcoma cells stimulated with PDGFBB, read-out: IC50 versus phospho-Tyr751 formation in PDGFRβ
T1 construct: endogenous in cells; host or cells: MG63 osteosarcoma cells (ATCC)
Description: This assay uses a conventional ELISA method to determine the ability of test compounds to inhibit phosphorylation of tyrosine in PDGFRβ.
Aliquots (100 μl) of culture media were placed in the outer wells to minimise edge effects. The cells were incubated overnight at 37° C. with 7.5% CO2 to allow the cells to adhere to the wells.
Aliquots (3 μl) of each compound concentration were added to test medium (300 μl) to create a second dilution range. Aliquots (16 μl) of each resultant compound concentration were added to the cells in each well. “Maximum” control cells received a dilution of DMSO plus test medium only. “Minimum” control cells received a reference PDGFR inhibitor (16 μl). The cells were incubated for 90 minutes at 37° C. with 7.5% CO2.
The resultant cells were stimulated with PDGFBB using the following procedure. A lyophilised powder of PDGFBB, (Sigma-Aldrich; Catalogue No. P4306) was mixed with sterile water to provide a stock solution of 10 μg/ml of PDGFBB. […] Aliquots thereof (44 μl) were added to compound treated cells and to the “Maximum” control cells. The “Minimum” control cells received medium only. The cells were incubated at 37° C. with 7.5% CO2 for 5 minutes. […] The resultant tissue culture plates were shaken for 5 minutes at ambient temperature to ensure full lysis and then frozen at −20° C. until required.
Aliquots (50 μl) were added to each well and the plates were placed at 4° C. for 16 hours. The wells were washed 5 times (1 minute soak each time) with 300 μl per well of PBST. The wells were treated with 50 μl of 3% BSA in PBST at ambient temperature for 1 hour and subsequently washed twice with 300 μl per well of PBST.
The tissue culture plates with frozen cell lysate were allowed to warm to 0° C.

[2] = molecular target: T2, KDR (VEGFR2) (Homo sapiens, UniProt P35968); experiment: In vitro phospho-KDR ELISA assay (Test (c)); assay type: cell-based; details: HUVECs stimulated with VEGF, read-out: IC50 versus phospho-tyrosine formation in KDR
T2 construct: phosphorylation of KDR expressed in human umbilical vein endothelial cells (HUVECs); host or cells: HUVEC
T2 sequence (P35968 20-1356): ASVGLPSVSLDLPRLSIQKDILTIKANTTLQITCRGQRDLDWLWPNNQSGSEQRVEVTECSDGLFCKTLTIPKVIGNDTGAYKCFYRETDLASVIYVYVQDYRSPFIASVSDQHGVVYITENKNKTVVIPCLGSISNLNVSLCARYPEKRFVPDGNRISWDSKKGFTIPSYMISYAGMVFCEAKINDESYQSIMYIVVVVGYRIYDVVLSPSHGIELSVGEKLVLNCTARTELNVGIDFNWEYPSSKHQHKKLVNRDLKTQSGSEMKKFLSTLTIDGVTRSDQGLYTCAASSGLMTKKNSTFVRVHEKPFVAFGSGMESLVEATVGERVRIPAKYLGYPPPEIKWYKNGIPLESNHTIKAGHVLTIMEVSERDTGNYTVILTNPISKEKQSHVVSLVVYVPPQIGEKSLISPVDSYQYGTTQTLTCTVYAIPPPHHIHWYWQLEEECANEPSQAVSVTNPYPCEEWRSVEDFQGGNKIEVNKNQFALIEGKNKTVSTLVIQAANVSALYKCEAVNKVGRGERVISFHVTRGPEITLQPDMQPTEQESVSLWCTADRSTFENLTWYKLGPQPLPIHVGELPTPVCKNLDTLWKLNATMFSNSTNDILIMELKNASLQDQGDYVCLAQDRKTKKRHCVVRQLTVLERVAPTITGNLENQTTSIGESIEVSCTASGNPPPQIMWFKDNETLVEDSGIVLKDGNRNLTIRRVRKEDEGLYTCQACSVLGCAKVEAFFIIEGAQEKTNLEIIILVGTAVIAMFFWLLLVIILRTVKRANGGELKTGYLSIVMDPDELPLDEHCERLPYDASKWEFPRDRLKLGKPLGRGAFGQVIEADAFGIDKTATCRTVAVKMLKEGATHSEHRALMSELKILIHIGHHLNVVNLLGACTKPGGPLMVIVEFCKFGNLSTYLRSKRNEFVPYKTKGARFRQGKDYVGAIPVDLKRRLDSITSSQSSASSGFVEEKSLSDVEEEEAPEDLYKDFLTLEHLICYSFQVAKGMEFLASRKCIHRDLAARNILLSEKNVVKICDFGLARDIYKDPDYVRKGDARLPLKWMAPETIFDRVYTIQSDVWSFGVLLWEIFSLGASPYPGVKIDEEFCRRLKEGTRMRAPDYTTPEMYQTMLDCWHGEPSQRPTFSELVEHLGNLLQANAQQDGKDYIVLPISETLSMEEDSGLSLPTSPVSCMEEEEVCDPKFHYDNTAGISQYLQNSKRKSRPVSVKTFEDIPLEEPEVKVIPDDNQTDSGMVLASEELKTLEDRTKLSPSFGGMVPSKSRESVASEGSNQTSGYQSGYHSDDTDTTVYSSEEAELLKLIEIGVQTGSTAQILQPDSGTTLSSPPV
Description: (c) In Vitro Phospho-KDR ELISA Assay
This assay uses a conventional ELISA method to determine the ability of test compounds to inhibit phosphorylation of tyrosine in KDR (VEGFR2).
The cells were incubated overnight at 37° C. with 7.5% CO2 to allow adherence to the well surface. […] The plates were incubated at 37° C. for 2.5 hours.
Test compounds were prepared as 10 mM stock solutions in DMSO and serially diluted with DMSO as required. […] Aliquots (50 μl) of each resultant compound concentration were added to the cells in each well. […] The cells were incubated for 90 minutes at 37° C. with 7.5% CO2.
The resultant cells were stimulated with VEGF using the following procedure. […] A dilution of this stock solution into ‘serum free medium’ provided a 1000 ng/ml VEGF solution. Aliquots thereof (50 μl) were added to all wells. The cells were incubated at 37° C. with 7.5% CO2 for 5 minutes. […] The resultant tissue culture plates were shaken for 5 minutes at ambient temperature to ensure full lysis before being frozen on dry-ice and stored at −20° C. until required.
The antibody was diluted in PBS to a concentration of 8 μg/ml, aliquots (100 μl) were added to each well and the plates were stored at ambient temperature for 16 hours. The wells were washed 3 times (1 minute soak each time) with 300 μl per well of PBST. The wells were treated with PBS containing 1% filter-sterilised BSA (1% BSA/PBS; 200 μl) at ambient temperature for 1 hour and subsequently washed 3 times with 300 μl per well of PBST.
The tissue culture plates with frozen cell lysate were allowed to warm to 0° C. Aliquots (100 μl) of the HUVEC cell lysate were added and the ELISA plates were agitated at ambient temperature for 3 hours. The wells were washed 3 times with 300 μl per well of PBST.

T1 sequence (P09619 33-1106): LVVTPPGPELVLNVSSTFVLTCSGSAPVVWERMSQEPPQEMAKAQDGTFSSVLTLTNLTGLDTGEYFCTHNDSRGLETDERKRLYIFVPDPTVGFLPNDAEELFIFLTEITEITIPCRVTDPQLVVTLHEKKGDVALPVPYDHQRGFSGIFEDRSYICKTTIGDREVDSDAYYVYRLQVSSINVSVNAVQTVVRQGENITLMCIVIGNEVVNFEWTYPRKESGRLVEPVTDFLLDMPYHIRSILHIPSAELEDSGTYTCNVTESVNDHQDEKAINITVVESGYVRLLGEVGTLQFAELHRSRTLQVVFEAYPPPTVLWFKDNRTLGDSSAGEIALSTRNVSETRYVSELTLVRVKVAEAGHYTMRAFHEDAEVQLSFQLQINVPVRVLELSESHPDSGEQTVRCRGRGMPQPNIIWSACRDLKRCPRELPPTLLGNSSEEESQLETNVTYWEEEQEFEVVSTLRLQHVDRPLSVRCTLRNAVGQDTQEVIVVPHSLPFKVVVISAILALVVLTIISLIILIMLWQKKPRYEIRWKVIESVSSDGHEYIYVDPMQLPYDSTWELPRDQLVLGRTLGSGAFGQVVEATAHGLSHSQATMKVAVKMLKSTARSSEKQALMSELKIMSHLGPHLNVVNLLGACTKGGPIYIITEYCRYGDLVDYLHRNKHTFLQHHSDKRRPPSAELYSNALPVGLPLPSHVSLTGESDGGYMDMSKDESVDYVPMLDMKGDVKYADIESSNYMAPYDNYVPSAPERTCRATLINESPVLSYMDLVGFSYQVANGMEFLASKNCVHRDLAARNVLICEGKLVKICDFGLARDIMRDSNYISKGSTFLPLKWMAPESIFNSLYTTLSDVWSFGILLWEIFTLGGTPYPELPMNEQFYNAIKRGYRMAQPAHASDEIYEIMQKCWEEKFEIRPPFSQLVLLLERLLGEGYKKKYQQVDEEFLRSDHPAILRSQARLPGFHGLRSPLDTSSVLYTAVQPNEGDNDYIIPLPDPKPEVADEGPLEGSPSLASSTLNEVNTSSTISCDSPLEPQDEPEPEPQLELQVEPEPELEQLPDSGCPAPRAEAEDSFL

IC50 [1] [nM]	IC50 [2] [nM]	Compound
~30	–	CCc1cc(NC(=O)Cc2ccc(Oc3ccnc4cc(OC)c(C#N)cc34)cn2)n[nH]1 [Example 3, N-(5-ethylpyrazol-3-yl)-2-[5-(6-cyano-7-methoxyquinolin-4-yloxy)pyridin-2-yl]acetamide]
~5	> 2000	COc1ccc2c(Oc3cnc(CC(=O)Nc4noc(C)c4C)c(OC)c3)ccnc2c1 [N-(4,5-dimethylisoxazol-3-yl)-2-[3-methoxy-5-(7-methoxyquinolin-4-yloxy)pyridin-2-yl]acetamide]
~5	> 2000	COc1cc2nccc(Oc3cnc(CC(=O)Nc4n[nH]c(C)c4C)c(OC)c3)c2cc1OC [N-(4,5-dimethylpyrazol-3-yl)-2-[5-(6,7-dimethoxyquinolin-4-yloxy)-3-methoxypyridin-2-yl]acetamide]
~5	> 2000	CCc1cc(NC(=O)Cc2ncc(Oc3ccnc4ccc(F)cc34)cc2OC)no1 [N-(5-ethylisoxazol-3-yl)-2-[5-(6-fluoroquinolin-4-yloxy)-3-methoxypyridin-2-yl]acetamide]
